Assay results: PubChem BioAssay (NCI)
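A five-concentration, 48-hour dose response in 96-well plates underlies each endpoint, interpolated linearly between surrounding concentrations. The concentration for full growth arrest is given as TGI.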

Assays:
Assay in all cases: NCI anticancer screen, dose series, 48 h
HCT-116 colon = tested on: HCT-116 colon
OVCAR-5 ovarian = tested on: OVCAR-5 ovarian
MDA-MB-231 breast = tested on: MDA-MB-231 breast
SK-MEL-2 melanoma = tested on: SK-MEL-2 melanoma
HL-60(TB) leukemia = tested on: HL-60(TB) leukemia
MDA-N = tested on: MDA-N
OVCAR-4 ovarian = tested on: OVCAR-4 ovarian
CAKI-1 renal = tested on: CAKI-1 renal
CCRF-CEM leukemia = tested on: CCRF-CEM leukemia
EKVX NSCLC = tested on: EKVX NSCLC
SF-539 CNS = tested on: SF-539 CNS
ACHN renal = tested on: ACHN renal
IGROV1 ovarian = tested on: IGROV1 ovarian
NCI-H522 lung = tested on: NCI-H522 lung
COLO 205 colon = tested on: COLO 205 colon
MDA-MB-435 = tested on: MDA-MB-435
UACC-62 melanoma = tested on: UACC-62 melanoma
HOP-92 NSCLC = tested on: HOP-92 NSCLC
NCI/ADR-RES ovarian = tested on: NCI/ADR-RES ovarian
MCF7 breast = tested on: MCF7 breast
U251 CNS = tested on: U251 CNS
SNB-75 CNS = tested on: SNB-75 CNS
OVCAR-3 ovarian = tested on: OVCAR-3 ovarian
NCI-H460 lung = tested on: NCI-H460 lung
TK-10 renal = tested on: TK-10 renal
SNB-19 CNS = tested on: SNB-19 CNS
DU-145 prostate = tested on: DU-145 prostate
NCI-H226 lung = tested on: NCI-H226 lung
RXF 393 renal = tested on: RXF 393 renal
MOLT-4 leukemia = tested on: MOLT-4 leukemia
SN12C renal = tested on: SN12C renal
NCI-H23 lung = tested on: NCI-H23 lung
KM12 colon = tested on: KM12 colon
UACC-257 melanoma = tested on: UACC-257 melanoma
OVCAR-8 ovarian = tested on: OVCAR-8 ovarian
HT29 colon = tested on: HT29 colon
HS 578T breast = tested on: HS 578T breast
HCC-2998 colon = tested on: HCC-2998 colon
M14 melanoma = tested on: M14 melanoma
786-0 renal = tested on: 786-0 renal
PC-3 prostate = tested on: PC-3 prostate
A549 NSCLC = tested on: A549 NSCLC
SK-OV-3 ovarian = tested on: SK-OV-3 ovarian
BT-549 breast = tested on: BT-549 breast
HOP-62 NSCLC = tested on: HOP-62 NSCLC
SF-268 CNS = tested on: SF-268 CNS
LOX IMVI melanoma = tested on: LOX IMVI melanoma
UO-31 renal = tested on: UO-31 renal
SF-295 CNS = tested on: SF-295 CNS
SW-620 colon = tested on: SW-620 colon
SK-MEL-28 melanoma = tested on: SK-MEL-28 melanoma
HCT-15 colon = tested on: HCT-15 colon
SK-MEL-5 melanoma = tested on: SK-MEL-5 melanoma

Measured: TGI

Cc1ccc(C)c(NC(=O)C(=O)C2C(=O)C3=C(CC2(C)C)Nc2ccccc2S3)c1 (stereo not drawn)
> 100 µM: all assays above
